# Tested on: A. baumannii NCTC 13420
# Assay: Antibacterial assay, MIC/MBC by broth microdilution (CLSI)
# Format: cell-based
# Conditions: A. baumannii NCTC 13420
# Description: (§1) Antibacterial assay. The minimum inhibitory concentrations (MICs) and the minimum bactericidal concentrations (MBCs) were determined by the broth microdilution method as described in the CLSI (The Clinical & Laboratory Standards Institute) guidelines (Performance standards for antimicrobial susceptibility testing: Clinical and Laboratory Standards Institute (CLSI), Twenty-Fifth informational supplement. Document M100-S25: […]; Vol. 35). All bacterial strains were cultured in cation-adjusted Muller Hinton broth (CAMHB) up to log-phase and then diluted to give a concentration of 7.5×10^5 CFU/mL. The gold complexes were dissolved in DMSO or water as stock solutions, which were then serially diluted two-fold in a 96-well plate. Aliquots (100 μL) of the dilutions were mixed with equal volumes of the bacterium suspension in a 96 well plate (in triplicates). The plates were incubated at 37° C. for 18 h without shaking. Negative and positive controls were included in the same well plate with wells having the culture medium only and bacteria solution only, respectively. The sample concentration that gave inhibition values above 90% were determined as MICs as calculated from absorbance values at 600 nm (OD600) obtained using a Tecan SPARK IOM plate reader. To determine minimum bactericidal concentrations (MBCs), agar plates were treated with 5 μL sample solutions from each well, and then incubated at 37° C. for 18 h without shaking. The sample concentration that gave no colony formed on agar plates were determined as MBCs.
# (§2) Selection of bacteria. The ESKAPE pathogens were chosen as they are responsible for the majority of nosocomial infections and also as they provide a good scope of strains including both Gram-negative and Gram-positive species. A. baumannii NCTC 13420 was originally identified in 24 hospitals in the UK during 2000-2003, which produced OXA-51-like β-lactamases, and was highly resistant to ampicillin, piperacillin, piperacillin/tazobactam, ceftazidime, cefotaxime, gentamicin and ciprofloxacin. P. aeruginosa NCTC13437 produces VIM-10 metallo-carbapenemase and VEB-1 (Vietnamese extended-spectrum beta-lactamase). Wild-type strain E. cloacae NCTC 13405 (originally named E. cloacae 684) was isolated from patients at the London Hospital during 1982-1983. This strain has inducible AmpC β-lactamase and is resistant to ampicillin/amoxicillin and cefoxitin. K. pneumoniae ATCC 700603 was isolated from the urine of a hospitalized patient in Richmond, Va. in 1994, and it produces SHV-18 extended spectrum beta-lactamase (ESBL). JE2 (USA300) is a methicillin-resistant S. aureus (MRSA) strain, also resistant to beta-lactams, ciprofloxacin, tetracycline, macrolides (erythromycin), lincosamides (clindamycin), streptogramin B, and mupirocin. E. faecium ATCC 700221, a positive fecal VRE (vancomycin-resistant enterococcus) isolate, is resistant to several antibiotics including vancomycin and teicoplanin. The quality control strain, Gram-negative E. coli ATCC 25922, was included in all assays and validated with ciprofloxacin and […].
row,Substance,MBC (in brackets)
1,(1-Thio-β-D-galatopyranosato)(triethylphosphine) gold(I) [Compound 10],31 (31) μM/mL
2,(1-Thio-β-D-galatopyranosato)(trimethylphosphine) gold(I) [Compound 16],17 μM/mL
3,(1-Thio-β-D-glucopyranosato)(trimethylphosphine) gold(I) [Compound 15],17 μM/mL

# Same assay, conditions: A. baumannii NCTC 13420; repeated twice, a/b = both values
row,Substance,MIC
1,(1-Thio-β-D-galatopyranosato)(triethylphosphine) gold(I) [Compound 10],31 (31) μM/mL
2,(1-Thio-β-D-galatopyranosato)(trimethylphosphine) gold(I) [Compound 16],17/9
3,(1-Thio-β-D-glucopyranosato)(trimethylphosphine) gold(I) [Compound 15],17/4

# Tested on: E. cloacae NCTC 13405
# Assay: as above
# Format: cell-based
# Conditions: E. cloacae NCTC 13405
# Description: as §1, §2
row,Substance,MBC (in brackets)
1,(1-Thio-β-D-galatopyranosato)(triethylphosphine) gold(I) [Compound 10],63 (63) μM/mL
2,(1-Thio-β-D-galatopyranosato)(trimethylphosphine) gold(I) [Compound 16],4(4) μM/mL
3,(1-Thio-β-D-glucopyranosato)(trimethylphosphine) gold(I) [Compound 15],17 μM/mL

# Same assay, conditions: E. cloacae NCTC 13405; repeated twice, a/b = both values
row,Substance,MIC
1,(1-Thio-β-D-galatopyranosato)(triethylphosphine) gold(I) [Compound 10],63 (63) μM/mL
2,(1-Thio-β-D-galatopyranosato)(trimethylphosphine) gold(I) [Compound 16],4(4) μM/mL
3,(1-Thio-β-D-glucopyranosato)(trimethylphosphine) gold(I) [Compound 15],4/9

# Tested on: E. coli ATCC 25922
# Assay: as above
# Format: cell-based
# Conditions: not given
# Description: as §1, §2
row,Substance,MBC (in brackets)
1,(1-Thio-β-D-galatopyranosato)(triethylphosphine) gold(I) [Compound 10],16 (16) μM/mL
2,(1-Thio-β-D-galatopyranosato)(trimethylphosphine) gold(I) [Compound 16],9 (9) μM/mL
3,(1-Thio-β-D-glucopyranosato)(trimethylphosphine) gold(I) [Compound 15],9 (9) μM/mL

# Same assay, conditions: repeated twice, a/b = both values
row,Substance,MIC
1,(1-Thio-β-D-galatopyranosato)(triethylphosphine) gold(I) [Compound 10],16 (16) μM/mL
2,(1-Thio-β-D-galatopyranosato)(trimethylphosphine) gold(I) [Compound 16],9 (9) μM/mL
3,(1-Thio-β-D-glucopyranosato)(trimethylphosphine) gold(I) [Compound 15],9 (9) μM/mL

# Tested on: E. faecalis ATCC 700221
# Assay: as above
# Format: cell-based
# Conditions: not given
# Description: as §1, §2
row,Substance,MBC (in brackets)
1,(1-Thio-β-D-galatopyranosato)(triethylphosphine) gold(I) [Compound 10],(0.5) μM/mL
2,(1-Thio-β-D-galatopyranosato)(trimethylphosphine) gold(I) [Compound 16],(0.5) μM/mL
3,(1-Thio-β-D-glucopyranosato)(trimethylphosphine) gold(I) [Compound 15],(0.5) μM/mL

# Tested on: K. pneumoniae ATCC 700603
# Assay: as above
# Format: cell-based
# Conditions: K. pneumoniae ATCC 700603
# Description: as §1, §2
row,Substance,MBC (in brackets)
1,(1-Thio-β-D-galatopyranosato)(triethylphosphine) gold(I) [Compound 10],251 (251) μM/mL
2,(1-Thio-β-D-galatopyranosato)(trimethylphosphine) gold(I) [Compound 16],34 (34) μM/mL
3,(1-Thio-β-D-glucopyranosato)(trimethylphosphine) gold(I) [Compound 15],34 (34) μM/mL

# Same assay, conditions: K. pneumoniae ATCC 700603; repeated twice, a/b = both values
row,Substance,MIC
1,(1-Thio-β-D-galatopyranosato)(triethylphosphine) gold(I) [Compound 10],251 (251) μM/mL
2,(1-Thio-β-D-galatopyranosato)(trimethylphosphine) gold(I) [Compound 16],34 (34) μM/mL
3,(1-Thio-β-D-glucopyranosato)(trimethylphosphine) gold(I) [Compound 15],34 (34) μM/mL

# Tested on: P. aeruginosa NCTC 13437
# Assay: as above
# Format: cell-based
# Conditions: P. aeruginosa NCTC 13437
# Description: as §1, §2
row,Substance,MBC (in brackets)
1,(1-Thio-β-D-galatopyranosato)(triethylphosphine) gold(I) [Compound 10],251 (251) μM/mL

# Same assay, conditions: P. aeruginosa NCTC 13437; repeated twice, a/b = both values
row,Substance,MIC
1,(1-Thio-β-D-galatopyranosato)(triethylphosphine) gold(I) [Compound 10],251 (251) μM/mL
2,(1-Thio-β-D-galatopyranosato)(trimethylphosphine) gold(I) [Compound 16],>547 μM/mL
3,(1-Thio-β-D-glucopyranosato)(trimethylphosphine) gold(I) [Compound 15],>547 μM/mL

# Tested on: S. aureus JE2 (USA300)
# Assay: as above
# Format: cell-based
# Conditions: S. aureus JE2 (USA300)
# Description: as §1, §2
row,Substance,MBC (in brackets)
1,(1-Thio-β-D-galatopyranosato)(triethylphosphine) gold(I) [Compound 10],(0.1) μM/mL
2,(1-Thio-β-D-galatopyranosato)(trimethylphosphine) gold(I) [Compound 16],0.3 (0.3) μM/mL
3,(1-Thio-β-D-glucopyranosato)(trimethylphosphine) gold(I) [Compound 15],(1) μM/mL

# Same assay, conditions: S. aureus JE2 (USA300); repeated twice, a/b = both values
row,Substance,MIC
1,(1-Thio-β-D-galatopyranosato)(triethylphosphine) gold(I) [Compound 10],0.02 μM/mL
2,(1-Thio-β-D-galatopyranosato)(trimethylphosphine) gold(I) [Compound 16],0.3 (0.3) μM/mL

# Tested on: A549 cells
# Assay: Cytotoxicity assay (resazurin)
# Format: cell-based
# Conditions: 20 h, mean±S.E.M. from two independent experiments
# Description: Sample preparation. The compounds were dissolved in DMSO at 12.8 mg/mL as the stock solutions, except for compounds 9-17, which were directly dissolved in the culture medium at 12.8 mg/mL. The stock solutions were diluted by the culture medium to the testing concentration at 128 μg/mL (compound 9-17 were diluted to 1,280 μg/mL). The solutions were then serially diluted two fold in a 96-well plate and were used in the cytotoxicity assay immediately.
# Cell culture and cytotoxicity assay. A549 cells (ATCC CCL-185) were cultured in high glucose DMEM (Sigma-Aldrich, D6429) supplemented with 10% FBS, 1% penicillin-streptomycin solution (Sigma-Aldrich, P4333), 1% gentamicin solution (Sigma-Aldrich, G1272) and 1% amphotericin B solution (Sigma-Aldrich, A2942) at 37° C. in a humidified atmosphere containing 5% CO2. After cells reached 80%˜90% confluency, they were detached and counted using an Invitrogen Countess automated cell counter. Cells with viability over 90% were seeded at a density of 5×10^3 cells per well in 96-well cell culture plates. After overnight culture, the culture medium in each well removed with a pipet. 80 μL of the compound solutions from each well of the 96-well plate prepared above were transferred to this 96-well plate containing the cells, and the plates were incubated for 20 h. After addition of 8 μL of 110 μg/mL resazurin, the plates were incubated for further 3 h at 37° C. in 5% CO2. The fluorescence intensity was measured using a Tecan M200 Infinite Pro microplate reader at excitation 560 nm, emission 590 nm. IC50 were calculated by curve fitting the inhibition values vs. log(concentration) using GraphPad's Prism. The cytotoxicity assays (in triplicate) were repeated twice using freshly prepared cells and compound solutions.
row,Substance,IC50 against A549 cells [mg/L]
1,(1-Thio-β-D-galatopyranosato)(triethylphosphine) gold(I) [Compound 10],16.9 ± 0.5
2,(1-Thio-β-D-galatopyranosato)(trimethylphosphine) gold(I) [Compound 16],43.0 ± 3.7
3,(1-Thio-β-D-glucopyranosato)(trimethylphosphine) gold(I) [Compound 15],52.2 ± 1.0

# Tested on: not listed separately
# Assay: Log P determination (n-octanol/water, FAAS)
# Conditions: not given
# Description: Log P Determination: Calibration curves. Milli-Q Water (150 mL) was added to n-octanol (150 mL), and the mixture was stirred for 3 days to allow both phases to reach saturation. The gold standard solution (1000 ppm Au in hydrochloric acid, Fisher Scientific) was diluted to 1, 2, 3, 4 and 5 ppm with n-octanol-saturated water, and the absorbance of the resulting solutions was measured by flame atomic absorption spectroscopy (FAAS, Agilent Technology 200 Series AA, equipped with a gold HC Lamp-Au coded). The absorbance data were plotted against Au concentration, and the resulting calibration curve was used for determining the concentration of the analogs in the aqueous phase.
# To construct the standard calibration curve of the Au concentration in the n-octanol phase, compound 27 was used. The Au concentration in compound 27 was first calibrated against the aqueous gold standard. For this, 0.440 mg of compound 27 was weighed on a Sartorius MC5 microbalance, and then added to 22 mL of n-octanol-saturated water. […] For this, solutions of varying concentrations (0.99, 2.47, 4.94, 5.93, 9.88 ppm) of compound 27 in water-saturated n-octanol were prepared. The absorbance was measured by FAAS, and the data were plotted against the Au concentration to provide a second calibration curve, which was used for determining the Au concentration of the analogs in the n-octanol phase.
# Determination of Au concentrations: Method 1. 0.5 to 1 mg of compound was weighed into a 2-mL Eppendorf tube containing 2 mL of n-octanol-saturated water. After shaking for about 4 h, the solution was centrifuged at 6000 rpm for 3 min. 1 mL of the supernatant was transferred to a new tube containing 1 mL of water-saturated n-octanol, and the mixture was shaken for 1 h. After centrifugation at 6000 rpm for 5 min, the two layers were collected and the gold concentration in each layer was determined by FAAS by comparing the absorbance to the first and second calibration curves.
# Determination of Au concentrations: Method 2. […] For Method 2, 0.6 to 1 mg of compound was weighed into a 2-mL Eppendorf tube containing 1 mL of n-octanol-saturated water and 1 mL of water-saturated n-octanol. After shaking for 3-4 h, the mixture was centrifuged, and all liquid was transferred to a 15-mL tube. The liquid was then diluted with 2 mL of n-octanol-saturated saturated water and 2 mL of water-saturated n-octanol, and the mixture was shaken for another hour. After centrifugation at 6000 rpm for 5 min, the two layers were collected and the gold concentration in each layer was determined by FAAS by comparing the absorbance to the first and second calibration curves.
# Log P was calculated as follows: log P=log[compound]oct/[compound]water
row,Substance,Log P
1,(1-Thio-β-D-galatopyranosato)(triethylphosphine) gold(I) [Compound 10],−0.73
2,(1-Thio-β-D-galatopyranosato)(trimethylphosphine) gold(I) [Compound 16],−1.88
3,(1-Thio-β-D-glucopyranosato)(trimethylphosphine) gold(I) [Compound 15],−1.63

# Source: patent publication US20210198284A1, “GOLD COMPOSITIONS AND METHODS OF USE THEREOF” (THE UNIVERSITY OF MASSACHUSETTS, priority 2018, published 2021)
